Laboratory results as given in a compilation of properties of binary mixtures (doi:10.1021/acs.jced.9b01103).

Assay: xn = mol fraction of the nth substance listed
Details: 96.7 kPa

CS(C)=O + CC(=O)[O-].CCCC[n+]1ccn(C)c1
x2 = 0
Details | viscosity [mPa·s]
303.15 K | 1.8
308.15 K | 1.665
313.15 K | 1.529
318.15 K | 1.407
323.15 K | 1.304
328.15 K | 1.211
333.15 K | 1.127
343.15 K | 0.989
348.15 K | 0.931

CC(=O)[O-].CCCC[n+]1ccn(C)c1 + CS(C)=O
viscosity [mPa·s]
Details | 303.15 K | 308.15 K | 313.15 K | 318.15 K | 323.15 K | 328.15 K | 333.15 K | 338.15 K | 343.15 K | 348.15 K
x1 = 0.21 | 6.44 | – | 4.98 | – | 3.81 | 3.39 | 3.08 | 2.77 | – | 2.3
x1 = 0.285 | 9.15 | 7.85 | 6.63 | 5.91 | – | – | – | 3.69 | 3.3 | 3.01
x1 = 0.369 | 13.34 | 11.31 | 9.67 | 8.25 | 7.12 | 6.3 | 5.48 | 4.89 | – | 3.97
x1 = 0.478 | 22.7 | 18 | 14.83 | 12.54 | 10.64 | 9.15 | 7.97 | 6.92 | 6.06 | 5.44
x1 = 0.606 | 51.5 | 39.2 | 30.3 | – | 19.2 | – | 12.9 | 10.5 | 8.81 | 7.34
x1 = 0.789 | 98.8 | 74.1 | 56.1 | 42.7 | 33.2 | 26.7 | 21.7 | – | 15.07 | 12.69
x1 = 0.884 | 131.1 | 96.5 | 75.2 | – | 47.5 | 39 | 32.8 | 28.1 | – | –
x1 = 1 | 253 | 180.6 | 133.1 | 102 | 79.4 | 62.1 | 50.2 | 40.7 | – | 28.4
